Experimental data published in US7332476B2, “Pyridyl substituted ketolide antibiotics” (Novartis AG, priority 2003, dated 2008).
≈ marks a conversion by molar mass, not a printed value.

How the values were obtained:
Assay in all cases: MIC, broth microdilution (NCCLS)
[1] = test system: Streptococcus pneumoniae Stpn_49619; format: cell-based; conditions: Table 7, Strain ID F (Table 6): S. pneumoniae Stpn_49619
Protocol: (§1) Strains. The bacterial isolates listed in Table 4 were cultivated from −70° C. frozen stocks by two consecutive overnight passages (P1, P2) at 35° C. on 5% blood agar (Remel, Lenexa, Kans.). Chocolate agar (Remel) is used for Haemophilus influenzae. H. influenzae and Streptococcus pneumoniae are incubated in 5-10% CO2
(§2) Drug Stock Preparation. To determine the amount of solvent to be used to give the desired final concentration, the formula “weight obtained in mg/final concentration in mg/ml” will be used. It will give the amount of solvent in ml needed to be added to give the desired concentration. For example, if 2.5 mg/ml is the desired concentration and the weight of compound is 13.7 mg, then the amount of solvent to be added is […]. Methanol is used as the solvent to dissolve the test compounds. Further dilution of stock is done in sterile, deionized water. Drug stocks are kept frozen at −70° C., protected from light.
(§3) Susceptibility Testing. MICs are determined by the broth microdilution method in accordance with the NCCLS guidelines. In brief, organism suspensions are adjusted to a 0.5 McFarland standard to yield a final inoculum between 3×10^5 and 7×10^5 CFU/ml. Drug dilutions and inocula are made in sterile, cation adjusted Mueller-Hinton Broth (CAMHB) (Remel) for all but S. pneumoniae [CAMHB with 2-5% lysed horse blood (Remel)] and H. influenzae [Haemophilus Test Medium (Remel)]. An inoculum volume of 100 μl is added to wells containing 100 μl of broth with 2-fold serial dilutions of drug. All inoculated microdilution trays are incubated in ambient air at 35° C. for 18-24 hours, except for S. pneumoniae, and H. influenzae (both at 5-10% CO2).
(§4) Following appropriate incubation, the MIC is determined and the MIC is defined as the lowest concentration of the drug that prevented visible growth.
as §1, with “8” for “4”
(§5) Following appropriate incubation, the MIC is determined and the MIC is defined as the lowest concentration of the drug that prevented visible growth. […] Antibacterial activity of representative compounds of the invention were compared against telitromycin.

[2] = test system: Streptococcus pneumoniae Stpn_297-749; format: cell-based; conditions: Table 7, Strain ID G (Table 6): S. pneumoniae Stpn_297-749
Protocol: as §1, §2, §3, §4
as §1, with “8” for “4”
as §5

[3] = test system: Streptococcus pyogenes Stpy_8668; format: cell-based; conditions: Table 7, Strain ID E (Table 6): S. pyogenes Stpy_8668
Protocol: as §1, §2, §3, §4
as §1, with “8” for “4”
as §5

[4] = test system: Streptococcus pneumoniae Stpn_280-962; format: cell-based; conditions: Table 7, Strain ID H (Table 6): S. pneumoniae Stpn_280-962
Protocol: as §1, §2, §3, §4
as §1, with “8” for “4”
as §5

[5] = test system: Streptococcus pneumoniae Stpn_Mef S 3427; format: cell-based; conditions: Table 7, Strain ID L (Table 6): S. pneumoniae Stpn_Mef S 3427
Protocol: as §1, §2, §3, §4
as §1, with “8” for “4”
as §5

[6] = test system: S. pneumoniae Stpn_Erm 6849; format: cell-based, Streptococcus pneumoniae; conditions: Table 7, Strain ID I (Table 6): S. pneumoniae Stpn_Erm 6849
Protocol: as §1, §2, §3, §4

[7] = test system: Streptococcus pneumoniae Stpn_Erm S 4297; format: cell-based; conditions: Table 7, Strain ID J (Table 6): S. pneumoniae Stpn_Erm S 4297
Protocol: as §1, §2, §3, §4
as §1, with “8” for “4”
as §5

[8] = test system: Haemophilus influenzae Hain_49247; format: cell-based; conditions: Table 7, Strain ID M (Table 6): H. influenzae Hain_49247; unit assumed
Protocol: as §1, §2, §3, §4
as §1, with “8” for “4”
as §5

[9] = test system: Enterococcus faecalis Enfa_29212; format: cell-based; conditions: Table 7, Strain ID D (Table 6): E. faecalis Enfa_29212; in µg/mL (unit assumed)
Protocol: as §1, §2, §3, §4
as §1, with “8” for “4”
as §5

[10] = test system: Staphylococcus epidermidis Step_14990; format: cell-based; conditions: Table 7, Strain ID B (Table 6): S. epidermidis Step_14990; in µg/mL (unit assumed)
Protocol: as §1, §2, §3, §4
as §1, with “8” for “4”
as §5

## CC[C@H]1OC(=O)[C@H](C)C(=O)[C@H](C)[C@@H](OC2O[C@H](C)C[C@H](N(C)C)[C@H]2O)[C@@](C)(OC)C[C@@H](C)C(=O)[C@H](C)[C@H]2N(CCCCn3cnc4cccnc43)C(=O)O[C@]12CC (stereo partly drawn) [Example 14, (3aS,4R,7R,9R,10R,11S,13R,15R,15aR)-3a,4-DIETHYL-1-[4-(3H-IMIDAZO[4,5-B]PYRIDIN-3-YL)BUTYL]-11-METHOXY-7,9,11,13,15-PENTAMETHYL-2,6,8,14-TETRAOXOTETRADECAHYDRO-2H-OXACYCLOTETRADECINO[4,3-D][1,3]OXAZOL-10-YL-3,4,6-TRIDEOXY-3-(DIMETHYLAMINO)-D-XYLO-HEXOPYRANOSIDE]
[1]
  MIC: =0.05
[2]
  MIC: =0.05
[3]
  MIC: =0.05
[4]
  MIC: =0.05
[5]
  MIC: =0.05

## CC[C@H]1OC(=O)[C@H](C)C(=O)[C@H](C)[C@@H](OC2O[C@H](C)C[C@H](N(C)C)[C@H]2O)[C@@](C)(OC)C[C@@H](C)C(=O)[C@H](C)[C@H]2N(CCCOc3cccc(-c4cccnc4)c3)C(=O)O[C@]12CC (stereo partly drawn) [Example 35, (3aS,4R,7R,9R,10R,11S,13R,15R,15aR)-3a,4-diethyl-11-methoxy-7,9,11,13,15-pentamethyl-2,6,8,14-tetraoxo-1-[3-(3-pyridin-3-ylphenoxy)propyl]tetradecahydro-1H-oxacyclotetradecino[4,3-d][1,3]oxazol-10-yl-3,4,6-trideoxy-3-(dimethylamino)-D-xylo-hexopyranoside]
[2]
  MIC: =0.05
[4]
  MIC: =0.05
[6]
  MIC: =0.05

## C=C[C@]12OC(=O)N(CCCCn3cnc(-c4cccnc4)c3)[C@@H]1[C@@H](C)C(=O)[C@H](C)C[C@](C)(OC)[C@H](OC1O[C@H](C)C[C@H](N(C)C)[C@H]1O)[C@@H](C)C(=O)[C@](C)(F)C(=O)O[C@@H]2CC (stereo partly drawn) [Example 49, (3aS,4R,7S,9R,10R,11S,13R,15R,15aR)-4-ethyl-7-fluoro-11-methoxy-7,9,11,13,15-pentamethyl-2,6,8,14-tetraoxo-1-[4-(4-pyridin-3-yl-1H-imidazol-1-yl)butyl]-3a-vinyltetradecahydro-1H-oxacyclotetradecino[4,3-d][1,3]oxazol-10-yl-3,4,6-trideoxy-3-(dimethylamino)-D-xylo-hexopyranoside]
[1]
  MIC: =0.05
[2]
  MIC: =0.05
[3]
  MIC: =0.05
[4]
  MIC: =0.05
[7]
  MIC: =0.05
[5]
  MIC: =0.05

## C=C[C@]12OC(=O)N(CCCC(C)(C)n3cnc(-c4cccnc4)c3)[C@@H]1[C@@H](C)C(=O)[C@H](C)C[C@](C)(OC)[C@H](OC1O[C@H](C)C[C@H](N(C)C)[C@H]1O)[C@@H](C)C(=O)[C@@H](C)C(=O)O[C@@H]2CC (stereo partly drawn) [Example 50, (3aS,4R,7R,9R,10R,11S,13R,15R,15aR)-4-ethyl-11-methoxy-7,9,11,13,15-pentamethyl-1-[4-methyl-4-(4-pyridin-3-yl-1H-imidazol-1-yl)pentyl]-2,6,8,14-tetraoxo-3a-vinyltetradecahydro-1H-oxacyclotetradecino[4,3-d][1,3]oxazol-10-yl-3,4,6-trideoxy-3-(dimethylamino)-D-xylo-hexopyranoside]
[1]
  MIC: =0.05
[2]
  MIC: =0.05
[3]
  MIC: =0.05
[4]
  MIC: =0.05
[7]
  MIC: =0.05

## CC[C@H]1OC(=O)[C@@](C)(F)C(=O)[C@H](C)[C@@H](OC2O[C@H](C)C[C@H](N(C)C)[C@H]2O)[C@@](C)(OC)C[C@@H](C)C(=O)[C@H](C)[C@H]2N(CCCCn3cnc(-c4ccc(C)nc4)c3)C(=O)O[C@]12CC (stereo partly drawn) [Example 30, (3aS,4R,7S,9R,10R,11S,13R,15R,15aR)-3a,4-diethyl-7-fluoro-11-methoxy-7,9,11,13,15-pentamethyl-1-{4-[4-(6-methylpyridin-3-yl)-1H-imidazol-1-yl]butyl}-2,6,8,14-tetraoxotetradecahydro-2H-oxacyclotetradecino[4,3-d][1,3]oxazol-10-yl 3,4,6-trideoxy-3-(dimethylamino)-D-xylo-hexopyranoside]
[1]
  MIC: =0.05
[2]
  MIC: =0.05
[3]
  MIC: =0.05
[4]
  MIC: =0.05

## CC[C@H]1OC(=O)[C@H](C)C(=O)[C@H](C)[C@@H](OC2O[C@H](C)C[C@H](N(C)C)[C@H]2O)[C@@](C)(OC)C[C@@H](C)C(=O)[C@H](C)[C@H]2N(CCCCn3cnc(-c4cccnc4)c3C)C(=O)O[C@]12CC (stereo partly drawn) [Example 21, (3aS,4R,7R,9R,10R,11S,13R,15R,15aR)-3a,4-DIETHYL-11-METHOXY-7,9,11,13,15-PENTAMETHYL-1-[4-(5-METHYL-4-PYRIDIN-3-YL-1H-IMIDAZOL-1-YL)BUTYL]-2,6,8,14-TETRAOXOTETRADECAHYDRO-2H-OXACYCLOTETRADECINO[4,3-D][1,3]OXAZOL-10-YL-3,4,6-TRIDEOXY-3-(DIMETHYLAMINO)-D-XYLO-HEXOPYRANOSIDE]
[1]
  MIC: =0.05
[2]
  MIC: =0.05
[3]
  MIC: =0.05
[4]
  MIC: =0.05

## CC[C@H]1OC(=O)[C@H](C)C(=O)[C@H](C)[C@@H](OC2O[C@H](C)C[C@H](N(C)C)[C@H]2O)[C@@](C)(OC)C[C@@H](C)C(=O)[C@H](C)[C@H]2N(CCCCc3ccnc4ccccc34)C(=O)O[C@]12CC (stereo partly drawn) [Example 15, (3aS,4R,7R,9R,10R,11S,13R,15R,15aR)-3a,4-DIETHYL-11-METHOXY-7,9,11,13,15-PENTAMETHYL-2,6,8,14-TETRAOXO-1-(4-QUINOLIN-4-YLBUTYL)TETRADECAHYDRO-2H-OXACYCLOTETRADECINO[4,3-D][1,3]OXAZOL-10-YL-3,4,6-TRIDEOXY-3-(DIMETHYLAMINO)-D-XYLO-HEXOPYRANOSIDE]
[1]
  MIC: =0.05
[2]
  MIC: =0.05
[3]
  MIC: =0.05
[4]
  MIC: =0.05
[7]; unit assumed
  MIC: 0.1 µg/mL (≈ 0.123 µM)
[8]
  MIC: 3.13 µg/mL (≈ 3.86 µM)
[9]
  MIC: 0.1
[10]
  MIC: 0.2
[5]
  MIC: =0.05

## CC[C@H]1OC(=O)[C@H](C)C(=O)[C@H](C)[C@@H](OC2O[C@H](C)C[C@H](N(C)C)[C@H]2O)[C@@](C)(OC)C[C@@H](C)C(=O)[C@H](C)[C@H]2N(CCCCc3ccc4ccccc4n3)C(=O)O[C@]12CC (stereo partly drawn) [Example 18, (3aS,4R,7R,9R,10R,11S,13R,15R,15aR)-3a,4-diethyl-11-methoxy-7,9,11,13,15-pentamethyl-2,6,8,14-tetraoxo-1-(4-quinolin-2-ylbutyl)tetradecahydro-2H-oxacyclotetradecino[4,3-d][1,3]oxazol-10-yl-3,4,6-trideoxy-3-(dimethylamino)-D-xylo-hexopyranoside]
[1]
  MIC: =0.05
[2]
  MIC: =0.05
[4]
  MIC: =0.05
[5]
  MIC: =0.05

## CC[C@H]1OC(=O)[C@@](C)(F)C(=O)[C@H](C)[C@@H](OC2O[C@H](C)C[C@H](N(C)C)[C@H]2O)[C@@](C)(OC)C[C@@H](C)C(=O)[C@H](C)[C@H]2N(CCCC(C)(C)n3cnc(-c4cccnc4)c3)C(=O)O[C@]12CC (stereo partly drawn) [Example 32, (3aS,4R,7S,9R,10R,11S,13R,15R,15aR)-3a,4-diethyl-7-fluoro-11-methoxy-7,9,11,13,15-pentamethyl-1-[4-methyl-4-(4-pyridin-3-yl-1H-imidazol-1-yl)pentyl]-2,6,8,14-tetraoxotetradecahydro-2H-oxacyclotetradecino[4,3-d][1,3]oxazol-10-yl-3,4,6-trideoxy-3-(dimethylamino)-D-xylo-hexopyranoside]
[1]
  MIC: =0.05
[2]
  MIC: =0.05
[3]
  MIC: =0.05
[4]
  MIC: =0.05
[7]
  MIC: =0.05
